Molecular target: T1, Human M4 (Homo sapiens, UniProt P08173)
T1 construct: expressed in transfected cells
T1 sequence (P08173 1-479): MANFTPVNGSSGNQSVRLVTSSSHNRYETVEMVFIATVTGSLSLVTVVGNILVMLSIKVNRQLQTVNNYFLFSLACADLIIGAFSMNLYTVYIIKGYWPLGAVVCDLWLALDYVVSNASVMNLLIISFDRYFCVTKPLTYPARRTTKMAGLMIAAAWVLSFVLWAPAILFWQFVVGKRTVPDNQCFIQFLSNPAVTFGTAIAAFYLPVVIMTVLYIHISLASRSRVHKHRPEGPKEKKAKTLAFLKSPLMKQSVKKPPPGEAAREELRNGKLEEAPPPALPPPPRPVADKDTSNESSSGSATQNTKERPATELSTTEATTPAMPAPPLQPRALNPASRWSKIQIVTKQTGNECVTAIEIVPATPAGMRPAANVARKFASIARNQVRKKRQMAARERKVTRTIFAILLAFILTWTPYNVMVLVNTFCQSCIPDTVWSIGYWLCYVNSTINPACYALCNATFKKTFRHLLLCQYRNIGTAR
Assay: mAChR M4 cell-based functional assay (calcium flux, potentiation of EC20 acetylcholine response), hM4-Gqi5 CHO-K1 cells
Details: for Emax at 30 µM / Emax: CHO-K1; for Emax at 30 µM: % ACh maximum at 30 μM, human M4, read-out: Emax; for EC50: hM4-Gqi5 CHO-K1 cells, calcium flux, PAM of EC20 acetylcholine, read-out: Human M4 EC50
How it was run: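 CHO-K1 cells stably expressing human M4 with chimeric Gqi5, loaded with Fluo-4 AM 50 min at 37 °C; calcium flux read by FDSS. 11-point 1:3 compound curves added, then EC20 acetylcholine at 144 s; potentiation of the EC20 response fitted by four-parameter logistic to give EC50 and Emax.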

Row | SMILES | Emax at 30 µM | EC50 | Emax
1 | Cc1c(N2CCc3ncc(C(=O)N4CC(C)(C)C4)cc3C2)nn2cnnc2c1C [Compound 123, (3,3-dimethylazetidin-1-yl)-[6-(7,8-dimethyl-[1,2,4]triazolo[4,3-b]pyridazin-6-yl)-7,8-dihydro-5H-1,6-naphthyridin-3-yl]methanone] | 77% | 4.77 µM | –
2 | Cc1c(N2CCc3ncc(C(=O)NC(C)c4nccs4)cc3C2)nn2cnnc2c1C (stereo not shown) [Compound 124, 6-(7,8-dimethyl-[1,2,4]triazolo[4,3-b]pyridazin-6-yl)-N-(1-thiazol-2-ylethyl)-7,8-dihydro-5H-1,6-naphthyridine-3-carboxamide] | 63% | 3.69 µM | –
3 | Cc1c(N2CCc3ncc(C(=O)NCCN4CCCC4)cc3C2)nn2cnnc2c1C [Compound 125, 6-(7,8-dimethyl-[1,2,4]triazolo[4,3-b]pyridazin-6-yl)-N-(2-pyrrolidin-1-ylethyl)-7,8-dihydro-5H-1,6-naphthyridine-3-carboxamide] | 85% | 7.2 µM | –
4 | Cc1c(N2CCc3ncc(C(=O)N(C)Cc4ccco4)cc3C2)nn2cnnc2c1C [Compound 126, 6-(7,8-dimethyl-[1,2,4]triazolo[4,3-b]pyridazin-6-yl)-N-(2-furylmethyl)-N-methyl-7,8-dihydro-5H-1,6-naphthyridine-3-carboxamide] | 55% | – | –
5 | Cc1c(N2CCc3ncc(C(F)(F)F)cc3C2)nn2cnnc2c1C [Compound 127, 6-(7,8-dimethyl-[1,2,4]triazolo[4,3-b]pyridazin-6-yl)-3-(trifluoromethyl)-7,8-dihydro-5H-1,6-naphthyridine] | 107% | 0.151 µM | –
6 | Cc1ccc2c(n1)CCN(c1nn3cnnc3c(C)c1C)C2 [Compound 128, 6-(7,8-dimethyl-[1,2,4]triazolo[4,3-b]pyridazin-6-yl)-2-methyl-7,8-dihydro-5H-1,6-naphthyridine] | – | 0.38 µM | 103%
7 | CCn1ccc(-c2cnc3c(c2)CN(c2nn4cnnc4c(C)c2C)CC3)n1 [Compound 129, 6-(7,8-dimethyl-[1,2,4]triazolo[4,3-b]pyridazin-6-yl)-3-(1-ethylpyrazol-3-yl)-7,8-dihydro-5H-1,6-naphthyridine] | 99% | 0.21 µM | –
8 | CCn1ccc(-c2cnc3c(c2)CN(c2nn4cnnc4cc2C)CC3)n1 [Compound 130, 3-(1-ethylpyrazol-3-yl)-6-(7-methyl-[1,2,4]triazolo[4,3-b]pyridazin-6-yl)-7,8-dihydro-5H-1,6-naphthyridine] | 93% | – | –
9 | CCn1ccc(-c2cnc3c(c2)CN(c2nn4ccnc4cc2C)CC3)n1 [Compound 131, 3-(1-ethylpyrazol-3-yl)-6-(7-methylimidazo[1,2-b]pyridazin-6-yl)-7,8-dihydro-5H-1,6-naphthyridine] | 81% | 0.921 µM | –
10 | Cc1c(N2CCc3ncc(-c4cc(-c5ccccc5)no4)cc3C2)nn2cnnc2c1C [Compound 132, 5-[6-(7,8-dimethyl-[1,2,4]triazolo[4,3-b]pyridazin-6-yl)-7,8-dihydro-5H-1,6-naphthyridin-3-yl]-3-phenyl-isoxazole] | 81% | 1.95 µM | –
11 | Cc1cc2nncn2nc1N1CCc2ncc(-c3cc(-c4ccccc4)no3)cc2C1 [Compound 133, 5-[6-(7-methyl-[1,2,4]triazolo[4,3-b]pyridazin-6-yl)-7,8-dihydro-5H-1,6-naphthyridin-3-yl]-3-phenyl-isoxazole] | 68% | 1.34 µM | –
12 | Cc1cnn(C)c1-c1cnc2c(c1)CN(c1nn3cnnc3c(C)c1C)CC2 [Compound 134, 3-(2,4-dimethylpyrazol-3-yl)-6-(7,8-dimethyl-[1,2,4]triazolo[4,3-b]pyridazin-6-yl)-7,8-dihydro-5H-1,6-naphthyridine] | 88% | 0.299 µM | –
13 | Cc1cc2nncn2nc1N1CCc2ncc(-c3c(C)cnn3C)cc2C1 [Compound 135, 3-(2,4-dimethylpyrazol-3-yl)-6-(7-methyl-[1,2,4]triazolo[4,3-b]pyridazin-6-yl)-7,8-dihydro-5H-1,6-naphthyridine] | 81% | 0.772 µM | –
14 | Cc1cc2nccn2nc1N1CCc2ncc(-c3c(C)cnn3C)cc2C1 [Compound 136, 3-(2,4-dimethylpyrazol-3-yl)-6-(7-methylimidazo[1,2-b]pyridazin-6-yl)-7,8-dihydro-5H-1,6-naphthyridine] | 66% | 1.2 µM | –
15 | Cc1c(N2CCc3ncc(-c4ccnn4C)cc3C2)nn2cnnc2c1C [Compound 137, 6-(7,8-dimethyl-[1,2,4]triazolo[4,3-b]pyridazin-6-yl)-3-(2-methylpyrazol-3-yl)-7,8-dihydro-5H-1,6-naphthyridine] | 99% | 0.295 µM | –
16 | Cc1cc2nncn2nc1N1CCc2ncc(-c3ccnn3C)cc2C1 [Compound 138, 3-(2-methylpyrazol-3-yl)-6-(7-methyl-[1,2,4]triazolo[4,3-b]pyridazin-6-yl)-7,8-dihydro-5H-1,6-naphthyridine] | 105% | 0.574 µM | –
17 | Cc1cc2nccn2nc1N1CCc2ncc(-c3ccnn3C)cc2C1 [Compound 139, 6-(7-methylimidazo[1,2-b]pyridazin-6-yl)-3-(2-methylpyrazol-3-yl)-7,8-dihydro-5H-1,6-naphthyridine] | 83% | 0.433 µM | –
18 | Cc1cc2nncn2nc1N1CCc2ncc(-c3cnn(C)c3)cc2C1 [Compound 140, 3-(1-methylpyrazol-4-yl)-6-(7-methyl-[1,2,4]triazolo[4,3-b]pyridazin-6-yl)-7,8-dihydro-5H-1,6-naphthyridine] | 100% | 0.373 µM | –
19 | Cc1cc2nccn2nc1N1CCc2ncc(-c3cnn(C)c3)cc2C1 [Compound 141, 6-(7-methylimidazo[1,2-b]pyridazin-6-yl)-3-(1-methylpyrazol-4-yl)-7,8-dihydro-5H-1,6-naphthyridine] | 91% | 0.583 µM | –
20 | Cc1c(N2CCc3ncc(-c4cnn(C5CC5)c4)cc3C2)nn2cnnc2c1C [Compound 142, 3-(1-cyclopropylpyrazol-4-yl)-6-(7,8-dimethyl-[1,2,4]triazolo[4,3-b]pyridazin-6-yl)-7,8-dihydro-5H-1,6-naphthyridine] | 93% | 0.169 µM | –
21 | Cc1cc2nncn2nc1N1CCc2ncc(-c3cnn(C4CC4)c3)cc2C1 [Compound 143, 3-(1-cyclopropylpyrazol-4-yl)-6-(7-methyl-[1,2,4]triazolo[4,3-b]pyridazin-6-yl)-7,8-dihydro-5H-1,6-naphthyridine] | 89% | 0.138 µM | –
22 | Cc1cc2nccn2nc1N1CCc2ncc(-c3cnn(CC(C)C)c3)cc2C1 [Compound 144, 3-(1-isobutylpyrazol-4-yl)-6-(7-methylimidazo[1,2-b]pyridazin-6-yl)-7,8-dihydro-5H-1,6-naphthyridine] | 44% | 0.266 µM | –
23 | Cc1cc2nccn2nc1N1CCc2ncc(-c3cnn(C4CC4)c3)cc2C1 [Compound 145, 3-(1-cyclopropylpyrazol-4-yl)-6-(7-methylimidazo[1,2-b]pyridazin-6-yl)-7,8-dihydro-5H-1,6-naphthyridine] | 74% | 0.304 µM | –
24 | Cc1c(N2CCc3ncc(-c4cnn(CC(C)C)c4)cc3C2)nn2cnnc2c1C [Compound 146, 6-(7,8-dimethyl-[1,2,4]triazolo[4,3-b]pyridazin-6-yl)-3-(1-isobutylpyrazol-4-yl)-7,8-dihydro-5H-1,6-naphthyridine] | 107% | 0.227 µM | –
25 | Cc1cc2nncn2nc1N1CCc2ncc(-c3cnn(CC(C)C)c3)cc2C1 [Compound 147, 3-(1-isobutylpyrazol-4-yl)-6-(7-methyl-[1,2,4]triazolo[4,3-b]pyridazin-6-yl)-7,8-dihydro-5H-1,6-naphthyridine] | 99% | 0.477 µM | –
26 | Cc1c(N2CCc3ncc(-c4cnn(C5CCNCC5)c4)cc3C2)nn2cnnc2c1C [Compound 148, 6-(7,8-dimethyl-[1,2,4]triazolo[4,3-b]pyridazin-6-yl)-3-[1-(4-piperidyl)pyrazol-4-yl]-7,8-dihydro-5H-1,6-naphthyridine] | 106% | 0.296 µM | –
27 | Cc1cc2nncn2nc1N1CCc2ncc(-c3cnn(C4CCNCC4)c3)cc2C1 [Compound 149, 6-(7-methyl-[1,2,4]triazolo[4,3-b]pyridazin-6-yl)-3-[1-(4-piperidyl)pyrazol-4-yl]-7,8-dihydro-5H-1,6-naphthyridine] | 107% | 0.316 µM | –
28 | Cc1cc2nccn2nc1N1CCc2ncc(-c3cnn(C4CCNCC4)c3)cc2C1 [Compound 150, 6-(7-methylimidazo[1,2-b]pyridazin-6-yl)-3-[1-(4-piperidyl)pyrazol-4-yl]-7,8-dihydro-5H-1,6-naphthyridine] | 87% | 0.568 µM | –
29 | Cc1cc2nncn2nc1N1CCc2ncccc2C1 [Compound 151, 6-(7-methyl-[1,2,4]triazolo[4,3-b]pyridazin-6-yl)-7,8-dihydro-5H-1,6-naphthyridine] | – | – | 93%
